In US8071645B2, “Systems and methods for treating human inflammatory and proliferative diseases and wounds, with fatty acid metabolism inhibitors and/or glycolytic inhibitors” (The Regents of the University of Colorado, priority 2003, dated 2011):

Tests used:
B16F1 melanoma cells = experiment: mitochondrial membrane potential (Mitotracker Red) of B16F1 melanoma cells; type: cell-based; details: 48 hours, FIG. 20
Description: Metabolic Activity Assay. Cells were prepared as previously described. The specific metabolic dye was added and mixed into the cell suspension. This plate was then placed into the 37° incubator for a 20-minute incubation. After incubation, the cells were centrifuged at 300×g for 5 minutes, and the supernatant was removed. The cells were then washed once with PBS/2.5% FBS and transferred into flow cytometric tubes containing 500 μL of PBS/2.5% FBS for analysis
MitoTracker Red CM-H2XROS (Molecular Probes). One vial of MitoTracker Red provides 10 tests and contains 50 μg. This is unstable and can't be stored. Therefore, when each vial was opened, 43 μL of Dimethysulfoxide (DMSO) were added. […]
Geometric Mean Fluorescence. […] Once the stained sample was plotted against the control (isotype or unstained), geometric mean fluorescence values were obtained for both histogram peaks. The stained control sample value was subtracted from sample to identify the actual fluorescence of the stained sample over that of the control.
B16F1 melanoma cells of Example 12 were untreated or treated with etomoxir at the indicated concentrations for 48 hours. Cells were harvested, stained with Mitotracker Red (Molecular Probes) as described in Materials and Methods, and analyzed by flow cytometry. The value of Mitotracker Red was then calculated as described in Materials and Methods. […]

L1210 cells = experiment: DCFDA staining (reactive intermediates) of L1210 cells; type: cell-based; details: 24 hours of incubation, FIG. 12A
Description: Flow Cytometry. Cells were harvested, counted, and resuspended at 10^6 cells/100 μl of PBS containing 2.5% fetal calf serum in preparation for flow cytometric analysis. Cells were stained for intracellular H202 using 6-carboxy-2′,7′-dichlorodihydrofluorescein diacetate (DCF-DA, Molecular Probes, Eugene, Oreg.). Briefly, cells were incubated at 37° with 1 mM DCF-DA for 20 minutes, washed twice in PBS containing 2.5% fetal calf serum and analyzed flow cytometrically. Mitochondrial membrane potential was assessed using Mitotracker Red (CM-H2XROS, Molecular Probes, Eugene, Oreg.). […] The cells were incubated at 37° for 20 minutes, washed twice in PBS containing 2.5% fetal calf serum and analyzed flow cytometrically. Data were acquired on a Coulter Elite Epics or Excel flow cytometer (Coulter, Hialeah, Fla.) and analyzed with CellQuest software, (Becton Dickinson, San Jose, Calif.). […] Each sample population was classified for cell size (forward scatter) and complexity (side scatter), gated on a population of interest and evaluated using 5,000 cells. […]
We measured the effects of etomoxir on metabolism by measuring mitochondrial membrane potential with a fluorescent dye (Mitotracker Red, Molecular Probes, Eugene, Oreg.) which fluoresces as a function of mitochondrial potential. […]

Question: Which “mitochondrial membrane potential as measured by Mitotracker Red” value (B16F1 melanoma cells) does the source give for `CCOC(=O)C1(CCCCCCOc2ccc(Cl)cc2)CO1` (centres unmarked) [etomoxir, 2-(6-(4-chlorophenoxy)-hexyl)-oxirane-2-carboxylic acid ethyl ester] here?
Answer: increase

Question: What about the “free radicals (reactive intermediates), DCFDA staining” value (L1210 cells) of the same compound?
Answer: increase
